We go through two molecules from ChEMBL document CHEMBL3227980, “Optically pure (+)-nicotine from (+/-)-nicotine and biological comparisons with (-)-nicotine” (J Med Chem, 1979).

The nature of one data set: in vivo. The conditions noted are these: ICR, mouse, iv.
Data set [1] in a line: Toxicity in iv dosed ICR mouse assessed as lethality. As to conditions: in vivo.

By LD50 is commonly meant the dose at which mortality reaches 50%. Take `CN1CCC[C@H]1c1cccnc1.O=C(O)C(O)C(O)C(=O)O.O=C(O)C(O)C(O)C(=O)O`: the selectivity ratio in “in vivo” stood at 7.24. For the same molecule, the LD50 in data set [1] came to 0.38 mg/kg. On to `CN1CCC[C@@H]1c1cccnc1.O=C(O)C(O)C(O)C(=O)O.O=C(O)C(O)C(O)C(=O)O`, for which, in data set [1], the LD50 came out at 2.75 mg/kg.
